Experiments:
[1] = test system: CCR2 expressing cells (CD11b+Ly6c+Hi) in peripheral blood; assay: In vivo depletion assay, flow cytometry of peripheral blood (Example 201); set-up: species or system human CCR2 knock-in mice (C57 background); details: hCCR2 knock-in mice, IV 0.1 mpk compound + 10 mpk anti-cotinine antibody (SEQ ID NO: 13/14), peripheral blood at 48 hr
Method in brief: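 Flow cytometry of blood collected at study termination quantified percent depletion of CD11b+Ly6c+Hi cells and CCR2 expression, using surface markers CD45, CD3, CD11b, Ly6C, human CCR2 after Fc block, with 7AAD viability stain. Compound given in saline:DMSO:PBS formulation, optionally combined with anti-cotinine antibody, incubated 30 min before administration.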

[2] = molecular target: anti-cotinine antibody (SEQ ID NO: 11/12, rabbit variable region with human IgG1 Fc DE mutation); assay: SPR binding of anti-cotinine antibody to ARM compounds, Biacore T200, 37° C. (Example 202); details: SPR Biacore T200, 37° C., pH 7.4, antibody SEQ ID NO: 11/12 captured on protein A; Kd in molar
Method in brief: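 Run at 37 °C in 10 mM HEPES pH 7.4, 150 mM NaCl, 0.005% P20, 1% DMSO, with compounds titrated from 200 nM (five 3-fold steps) over protein A–captured antibody. A 1:1 kinetic model on double-referenced data gave rate constants, Kd as koff/kon and residence time 1/koff; results as pKd, run-averaged.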

[3] = molecular target: human alpha1 nicotinic acetylcholine (nACh) receptor (Homo sapiens, UniProt P02708); assay: Nicotinic acetylcholine receptor antagonism assay, IONFlux automated patch clamp (Example 203); type: cell-based; details: for IC50: antagonism of ACh-stimulated human alpha1 nAChR current, patch clamp; for Emax at 100 µM: maximum percentage antagonism at maximum concentration tested 100 μM; for Emax at 10 µM: maximum percentage antagonism at maximum concentration tested 10 μM
Method in brief: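 Cells expressing human α1 nAChR were incubated with a compound dose response (top 10 μM or 100 μM), then stimulated with ACh (10 mM), and peak current was read by automated patch clamp. % inhibition was taken against ACh-alone control, corrected for vehicle and run-down, and fit non-linearly for IC50; runs were averaged.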

human alpha1 nicotinic acetylcholine (nACh) receptor, sequence (P02708 21-457): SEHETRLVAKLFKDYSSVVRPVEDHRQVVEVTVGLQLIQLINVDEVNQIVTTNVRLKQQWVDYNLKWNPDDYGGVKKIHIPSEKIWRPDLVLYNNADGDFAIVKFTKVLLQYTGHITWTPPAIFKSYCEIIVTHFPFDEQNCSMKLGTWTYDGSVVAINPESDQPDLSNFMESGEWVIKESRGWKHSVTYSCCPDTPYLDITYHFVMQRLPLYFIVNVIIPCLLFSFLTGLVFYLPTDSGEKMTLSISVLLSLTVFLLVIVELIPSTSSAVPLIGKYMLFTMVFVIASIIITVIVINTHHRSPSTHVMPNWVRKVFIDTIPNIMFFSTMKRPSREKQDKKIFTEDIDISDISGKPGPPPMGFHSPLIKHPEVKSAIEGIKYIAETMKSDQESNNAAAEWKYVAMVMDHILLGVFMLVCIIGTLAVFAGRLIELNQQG
human alpha1 nicotinic acetylcholine (nACh) receptor, sequence (P11230 24-501 partner): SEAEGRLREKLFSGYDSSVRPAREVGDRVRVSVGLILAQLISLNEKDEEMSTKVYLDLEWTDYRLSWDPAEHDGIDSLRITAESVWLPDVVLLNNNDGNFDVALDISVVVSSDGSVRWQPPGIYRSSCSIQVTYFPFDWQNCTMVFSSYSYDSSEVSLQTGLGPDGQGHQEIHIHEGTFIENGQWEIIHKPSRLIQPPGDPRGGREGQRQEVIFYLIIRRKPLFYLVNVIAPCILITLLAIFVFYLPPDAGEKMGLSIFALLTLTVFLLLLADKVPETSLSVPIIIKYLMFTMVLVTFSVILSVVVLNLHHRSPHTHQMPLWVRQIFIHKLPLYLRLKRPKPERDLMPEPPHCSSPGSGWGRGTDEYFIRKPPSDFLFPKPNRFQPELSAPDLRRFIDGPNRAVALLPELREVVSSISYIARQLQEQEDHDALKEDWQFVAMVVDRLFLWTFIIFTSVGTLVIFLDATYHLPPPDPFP
human alpha1 nicotinic acetylcholine (nACh) receptor, sequence (Q07001 22-517 partner): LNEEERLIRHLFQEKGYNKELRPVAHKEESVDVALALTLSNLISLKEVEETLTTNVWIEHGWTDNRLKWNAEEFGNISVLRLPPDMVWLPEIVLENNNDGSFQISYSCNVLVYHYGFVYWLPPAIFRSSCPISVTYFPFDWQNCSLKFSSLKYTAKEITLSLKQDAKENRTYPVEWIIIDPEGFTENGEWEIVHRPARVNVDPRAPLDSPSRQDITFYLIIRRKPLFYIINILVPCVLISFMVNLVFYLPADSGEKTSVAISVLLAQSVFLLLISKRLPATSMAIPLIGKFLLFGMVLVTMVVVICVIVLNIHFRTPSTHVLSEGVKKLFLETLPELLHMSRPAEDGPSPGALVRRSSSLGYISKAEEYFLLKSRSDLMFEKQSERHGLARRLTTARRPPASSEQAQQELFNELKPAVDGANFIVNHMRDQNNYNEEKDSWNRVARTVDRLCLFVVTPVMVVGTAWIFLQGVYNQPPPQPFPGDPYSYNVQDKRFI

CC(C)N(C)[C@@H]1CC[C@H](N2CC[C@H](Nc3ncnc4ccc(C(F)(F)F)cc34)C2=O)[C@H](NC(=O)[C@H]2CC[C@@H](NC(=O)COCCNC(=O)COCCNC(=O)[C@H]3CC(=O)N(C)[C@@H]3c3cccnc3)CC2)C1 [Example 99, (2S,3S)-N-(2-(2-((2-(2-(((1S,4s)-4-(((1R,2S,5R)-5-(Isopropyl(methyl)amino)-2-((S)-2-oxo-3-((6-(trifluoromethyl)quinazolin-4-yl)amino)pyrrolidin-1-yl)cyclohexyl)carbamoyl)cyclohexyl)amino)-2-oxoethoxy)ethyl)amino)-2-oxoethoxy)ethyl)-1-methyl-5-oxo-2-(pyridin-3-yl)pyrrolidine-3-carboxamide] was tested, and the “% Depletion of CCR2 expressing cells” value [1] was 80%, the “pKd of Antibody for ARM Compound of Formula (I)” value (“pKd of Antibody” below) [2] was 9.062 and the IC50 [3] was 33.1 µM. For the same compound, the Emax at 100 µM ([3]; read-out: Maximum Response) was 71.1%.
With CN1C(=O)C[C@H](C(=O)NCCOCCOCCOCCC(=O)N[C@H]2CC[C@@H](C(=O)N[C@@H]3C[C@H](NC(C)(C)C)CC[C@@H]3N3CC[C@H](Nc4ncnc5ccc(C(F)(F)F)cc45)C3=O)CC2)[C@H]1c1cccnc1 [Example 23, (2S,3S)-N-(2-(2-(2-(3-(((1S,4s)-4-(((1R,2S,5R)-5-(tert-Butylamino)-2-((S)-2-oxo-3-((6-(trifluoromethyl)quinazolin-4-yl)amino)pyrrolidin-1-yl)cyclohexyl)carbamoyl)cyclohexyl)amino)-3-oxopropoxy)ethoxy)ethoxy)ethyl)-1-methyl-5-oxo-2-(pyridin-3-yl)pyrrolidine-3-carboxamide] the “% Depletion of CCR2 expressing cells” value [1] was 90.7%, the “pKd of Antibody” value [2] was 9.2166 and the IC50 [3] was 85.2 µM. The Emax at 100 µM ([3]; read-out: Maximum Response) was 50.5%.
In the case of CC(C)N(C)[C@@H]1CC[C@H](N2CC[C@H](Nc3ncnc4ccc(C(F)(F)F)cc34)C2=O)[C@H](NC(=O)[C@H]2CC[C@@H](NC(=O)CCCO[C@H]3CC[C@H](NC(=O)CCNC(=O)[C@@H]4CC(=O)N(C)[C@H]4c4cccnc4)CC3)CC2)C1 [Example 52, (2S,3S)-N-(3-(((1R,4S)-4-(4-(((1S,4S)-4-(((1R,2S,5R)-5-(Isopropyl(methyl)amino)-2-((S)-2-oxo-3-((6-(trifluoromethyl)quinazolin-4-yl)amino)pyrrolidin-1-yl)cyclohexyl)carbamoyl)cyclohexyl)amino)-4-oxobutoxy)cyclohexyl)amino)-3-oxopropyl)-1-methyl-5-oxo-2-(pyridin-3-yl)pyrrolidine-3-carboxamide], the “% Depletion of CCR2 expressing cells” value [1] is reported as 79.18%, the “pKd of Antibody” value [2] is reported as 9.2545 and the IC50 [3] is reported as 33.3 µM. The Emax at 33.33 µM ([3]; maximum percentage antagonism at maximum concentration tested 33.33 μM, read-out: Maximum Response) was 8.3%.
For CC(C)N(C)[C@@H]1CC[C@H](N2CC[C@H](Nc3ncnc4ccc(C(F)(F)F)cc34)C2=O)[C@H](NC(=O)[C@H]2CC[C@@H](NC(=O)CCOCCNC(=O)CCNC(=O)CCNC(=O)[C@H]3CC(=O)N(C)[C@@H]3c3cccnc3)CC2)C1 [Example 182, (2S,3S)-N-(3-((3-((2-(3-(((1S,4s)-4-(((1R,2S,5R)-5-(Isopropyl(methyl)amino)-2-((S)-2-oxo-3-((6-(trifluoromethyl)quinazolin-4-yl)amino)pyrrolidin-1-yl)cyclohexyl)carbamoyl)cyclohexyl)amino)-3-oxopropoxy)ethyl)amino)-3-oxopropyl)amino)-3-oxopropyl)-1-methyl-5-oxo-2-(pyridin-3-yl)pyrrolidine-3-carboxamide], the “% Depletion of CCR2 expressing cells” value [1] was 97%, the “pKd of Antibody” value [2] was 9.117 and the IC50 [3] was 76.4 µM. For the same compound, the Emax at 100 µM ([3]; read-out: Maximum Response) was 61.9%.
CC(C)N(C)[C@@H]1CC[C@H](N2CC[C@H](Nc3ncnc4ccc(C(F)(F)F)cc34)C2=O)[C@H](NC(=O)CCOCCC(=O)N[C@H]2C[C@H](C(=O)NCCOCCNC(=O)[C@H]3CC(=O)N(C)[C@@H]3c3cccnc3)C2)C1 [Example 187] was tested, and the “% Depletion of CCR2 expressing cells” value [1] was 92%, the “pKd of Antibody” value [2] was 9.104 and the IC50 [3] was 71.1 µM. For the same compound, the Emax at 100 µM ([3]; read-out: Maximum Response) was 63.7%.
CC(C)N(C)[C@@H]1CC[C@H](N2CC[C@H](Nc3ncnc4ccc(C(F)(F)F)cc34)C2=O)[C@H](NC(=O)[C@H]2CC[C@H](C(=O)NCCCOCCCCOCCCNC(=O)[C@H]3CC(=O)N(C)[C@@H]3c3cccnc3)CC2)C1 [Example 194, (1r,4R)-N^1-((1R,2S,5R)-5-(Isopropyl(methyl)amino)-2-((S)-2-oxo-3-((6-(trifluoromethyl)quinazolin-4-yl)amino)pyrrolidin-1-yl)cyclohexyl)-N^4-(3-(4-(3-((2S,3S)-1-methyl-5-oxo-2-(pyridin-3-yl)pyrrolidine-3-carboxamido)propoxy)butoxy)propyl)cyclohexane-1,4-dicarboxamide] was tested, and the “% Depletion of CCR2 expressing cells” value [1] was 96%, the “pKd of Antibody” value [2] was 9.5415 and the IC50 [3] was no less than 100 µM. The Emax at 100 µM ([3]; read-out: Maximum Response) was 44.9%.
With CC(C)N(C)[C@@H]1CC[C@H](N2CC[C@H](Nc3ncnc4ccc(C(F)(F)F)cc34)C2=O)[C@H](NC(=O)[C@H]2CC[C@@H](CC(=O)CCCOC[C@H]3CC[C@H](COCCNC(=O)[C@H]4CC(=O)N(C)[C@@H]4c4cccnc4)CC3)CC2)C1 [Example 60, (2S,3S)-N-(2-(((1R,4S)-4-(((5-((1S,4S)-4-(((1R,2S,5R)-5-(Isopropyl(methyl)amino)-2-((S)-2-oxo-3-((6-(trifluoromethyl)quinazolin-4-yl)amino)pyrrolidin-1-yl)cyclohexyl)carbamoyl)cyclohexyl)-4-oxopentyl)oxy)methyl)cyclohexyl)methoxy)ethyl)-1-methyl-5-oxo-2-(pyridin-3-yl)pyrrolidine-3-carboxamide] the “% Depletion of CCR2 expressing cells” value [1] was 90%, the “pKd of Antibody” value [2] was 9.4635 and the IC50 [3] was no less than 10 µM. It also gave an Emax at 10 µM ([3]; read-out: Maximum Response) of 18.2%.
For CC(C)N(C)[C@@H]1CC[C@H](N2CC[C@H](Nc3ncnc4ccc(C(F)(F)F)cc34)C2=O)[C@H](NC(=O)[C@H]2CC[C@H](NC(=O)CCOCCOCCOCCNC(=O)[C@H]3CC(=O)N(C)[C@@H]3c3cccnc3)CC2)C1 [Example 30, (2S,3S)-N-(2-(2-(2-(3-(((1R,4r)-4-(((1R,2S,5R)-5-(Isopropyl(methyl)amino)-2-((S)-2-oxo-3-((6-(trifluoromethyl)quinazolin-4-yl)amino)pyrrolidin-1-yl)cyclohexyl)carbamoyl)cyclohexyl)amino)-3-oxopropoxy)ethoxy)ethoxy)ethyl)-1-methyl-5-oxo-2-(pyridin-3-yl)pyrrolidine-3-carboxamide], the “% Depletion of CCR2 expressing cells” value [1] was 34.88%, the “pKd of Antibody” value [2] was 9.3155 and the IC50 [3] was no less than 10 µM. For the same compound, the Emax at 10 µM ([3]; read-out: Maximum Response) was 5.4%.
With CC(C)N(C)[C@@H]1CC[C@H](N2CC[C@H](Nc3ncnc4ccc(C(F)(F)F)cc34)C2=O)[C@H](NC(=O)CCOCCNC(=O)COCCNC(=O)COCCNC(=O)[C@H]2CC(=O)N(C)[C@@H]2c2cccnc2)C1 [Example 102, (2S,3S)-N-(18-(((1R,2S,5R)-5-(Isopropyl(methyl)amino)-2-((S)-2-oxo-3-((6-(trifluoromethyl)quinazolin-4-yl)amino)pyrrolidin-1-yl)cyclohexyl)amino)-5,11,18-trioxo-3,9,15-trioxa-6,12-diazaoctadecyl)-1-methyl-5-oxo-2-(pyridin-3-yl)pyrrolidine-3-carboxamide] the “% Depletion of CCR2 expressing cells” value [1] was 91%, the “pKd of Antibody” value [2] was 9.076 and the IC50 [3] was 66.1 µM. The Emax at 100 µM ([3]; read-out: Maximum Response) was 61.3%.
CC(C)N(C)[C@@H]1CC[C@H](N2CC[C@H](Nc3ncnc4ccc(C(F)(F)F)cc34)C2=O)[C@H](NC(=O)CCOCCNC(=O)CCOCCNC(=O)COCCNC(=O)[C@H]2CC(=O)N(C)[C@@H]2c2cccnc2)C1 [Example 105, (2S,3S)-N-(19-(((1R,2S,5R)-5-(Isopropyl(methyl)amino)-2-((S)-2-oxo-3-((6-(trifluoromethyl)quinazolin-4-yl)amino)pyrrolidin-1-yl)cyclohexyl)amino)-5,12,19-trioxo-3,9,16-trioxa-6,13-diazanonadecyl)-1-methyl-5-oxo-2-(pyridin-3-yl)pyrrolidine-3-carboxamide] was tested, and the “% Depletion of CCR2 expressing cells” value [1] was 95%, the “pKd of Antibody” value [2] was 9.0705 and the IC50 [3] was 38.9 µM. For the same compound, the Emax at 100 µM ([3]; read-out: Maximum Response) was 75.7%.
CCN1C(=O)C[C@H](C(=O)NCCOCCOCCOCCC(=O)N[C@H]2CC[C@@H](C(=O)N[C@@H]3C[C@H](NC(C)(C)C)CC[C@@H]3N3CC[C@H](Nc4ncnc5ccc(C(F)(F)F)cc45)C3=O)CC2)[C@H]1c1cccnc1 [Example 35, (2S,3S)-N-(2-(2-(2-(3-(((1S,4s)-4-(((1R,2S,5R)-5-(tert-butylamino)-2-((S)-2-oxo-3-((6-(trifluoromethyl)quinazolin-4-yl)amino)pyrrolidin-1-yl)cyclohexyl)carbamoyl)cyclohexyl)amino)-3-oxopropoxy)ethoxy)ethoxy)ethyl)-1-ethyl-5-oxo-2-(pyridin-3-yl)pyrrolidine-3-carboxamide] was tested, and the “% Depletion of CCR2 expressing cells” value [1] was 88.81%, the “pKd of Antibody” value [2] was 9.785 and the IC50 [3] was 89.2 µM. The Emax at 100 µM ([3]; read-out: Maximum Response) was 52.3%.

Reference: patent US12521393B2, “Cytotoxicity targeting chimeras for CCR2-expressing cells” (GLAXOSMITHKLINE INTELLECTUAL PROPERTY DEVELOPMENT LIMITED, priority 2021, dated 2026)
